These results are taken from patent US20210355105A1, “REGULATOR OF NITROGEN-CONTAINING HETEROAROMATIC DERIVATIVES, PREPARATION METHOD THEREFOR AND USE THEREOF” (Jiangsu Hansoh Pharmaceutical Group Co., Ltd., priority 2018, published 2021).

For assay [1], the target named is T1, SHP-2 full-length protein (Homo sapiens, UniProt Q06124).
T1 construct: purchased BPS Bioscience 79330
T1 sequence (Q06124 1-593): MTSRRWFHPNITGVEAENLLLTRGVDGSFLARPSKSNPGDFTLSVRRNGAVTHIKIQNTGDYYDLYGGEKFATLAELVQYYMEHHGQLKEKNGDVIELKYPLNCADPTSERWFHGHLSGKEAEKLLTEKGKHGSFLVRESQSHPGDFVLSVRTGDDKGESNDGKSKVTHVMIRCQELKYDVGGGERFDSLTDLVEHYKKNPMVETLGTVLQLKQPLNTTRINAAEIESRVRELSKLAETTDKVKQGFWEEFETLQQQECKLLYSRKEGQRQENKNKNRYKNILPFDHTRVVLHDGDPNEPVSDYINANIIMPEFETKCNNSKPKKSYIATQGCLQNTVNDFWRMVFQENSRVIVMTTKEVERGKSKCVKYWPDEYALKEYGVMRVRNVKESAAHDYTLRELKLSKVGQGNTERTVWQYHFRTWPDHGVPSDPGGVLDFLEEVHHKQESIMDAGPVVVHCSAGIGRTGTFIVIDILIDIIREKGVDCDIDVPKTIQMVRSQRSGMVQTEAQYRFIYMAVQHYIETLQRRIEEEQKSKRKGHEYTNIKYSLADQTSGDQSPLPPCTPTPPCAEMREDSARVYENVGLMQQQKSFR
Put plainly: Inhibition of SHP-2 kinase activity (Homogeneous Full Length SHP-2 Assay Kit). The following applies: relative IC50, full-length SHP-2 with activating peptide. The assay is classed as biochemical. The method, then: The objective of this test is to determine the inhibitory effect of the compounds on SHP-2 full-length protein allosteric activity.
Experimental method: Homogeneous Full Length SHP-2 Assay Kit (BPS Bioscience, #79330) was used to determine the in vitro SHP-2 activity. First, 18 μL of Master Mix was added to a 96-well low adsorption microplate (NUNC, #267342), i.e., the reaction buffer with a final concentration of 1× comprised 0.5 μM SHP-2 activating Peptide and 5 mM DTT. After centrifugation, 5 μL of test compound/DMSO was added to each well (the final DMSO content was 1%, V/V, the test compound was dissolved in DMSO to 1 mM, a three-fold serial dilution was carried out to obtain ten concentrations, the final concentration of the reaction system ranged from 1 μM to 0.05 nM). SHP-2 was diluted in the 1× reaction buffer to a final concentration of 0.06 nM, and the resulting solution was added to the reaction microplate (2 μL per well). Full activity control (compound only with DMSO) and full inhibition control (no SHP-2) were set up on the reaction plate. After centrifugation, the reaction mixture was incubated at room temperature for 60 minutes.
After completion of the incubation, 25 μL of Substrate solution, which comprised Substrate with a final concentration of 10 μM and 5 mM DTT, was added to each well. After centrifugation, the reaction mixture was incubated at room temperature for 30 minutes. After completion of the reaction, readings were measured on the Synergy H1 full-function microplate reader (BioTek) (excitation wavelength: 340 nm, emission wavelength: […], gain value: 75).
The IC50 value of the test compounds was calculated by fitting the percentage inhibition rate and data of ten concentrations to a four-parameter nonlinear logic formula with GraphPad prism.

A further assay concerns NCI-H358 cells. Put plainly: Proliferation inhibition of NCI-H358 cells (CellTiter-Glo). The assay is classed as cell-based. The following applies: Homo sapiens, NCI-H358, 72 h; 3 days incubation. The method, then: Experimental method: 3000 cells (90 μL of cell suspension) were inoculated to each well of a 96-well cell culture plate (Corning, #3610). The culture plate was incubated in an incubator overnight (37° C., 5% CO2). On the next day, 10 μL of gradient dilutions of the test compound solution (the final DMSO content was 0.2%, V/V, the final concentration of the reaction system ranged from 10 μM to 4.5 nM) was added to each well of the culture plate. At the same time, full activity control (compound only with DMSO) and full inhibition control (no cells) were set up on the reaction plate. The culture plate was incubated in the incubator for 3 days (37° C., 5% CO2).
After completion of the incubation, 50 μL of CellTiter-Glo reagent was added to each well of the cell culture plate, which was left to stand at room temperature for 10 minutes. The chemiluminescence signal value was measured in the Synergy H1 full-function microplate reader (BioTek). […] The IC50 value of the test compounds was calculated by fitting the percentage inhibition rate and data of eight concentrations to a four-parameter nonlinear logic formula with GraphPad prism.
The IC50 value was calculated by fitting the data of different concentrations and corresponding percentage inhibition rates to a four-parameter nonlinear logic formula with GraphPad prism.

In the case of `Cc1nc(N2CCC3(CC2)Cc2ccccc2[C@H]3N)c(CO)nc1-c1cccc(Cl)c1Cl` [Example 105, (S)-(3-(1-amino-1,3-dihydrospiro[indene-2,4′-piperidin]-1′-yl)-6-(2,3-dichlorophenyl)-5-methylpyrazin-2-yl)methanol], the values for the IC50 (in assay [1]; in the assay on NCI-H358 cells) were 1.56 nM and 10.9 nM, respectively.
The corresponding values for `Nc1nc(N2CCC3(CC2)Cc2ccccc2[C@H]3N)cnc1Sc1ccnc(Cl)c1C1CC1` [Example 92, (S)-1′-(6-amino-5-((2-chloro-3-cyclopropylpyridin-4-yl)thio)pyrazin-2-yl)-1,3-dihydrospiro[indene-2,4′-piperidin]-1-amine] are 4.17 nM and 10.5 nM.
The corresponding values for `Nc1nc(N2CCC3(CC2)Cc2ccccc2[C@H]3N)cnc1Sc1ccnc(C2CC2)c1Cl` [Example 93, (S)-1′-(6-amino-5-((3-chloro-2-cyclopropylpyridin-4-yl)thio)pyrazin-2-yl)-1,3-dihydrospiro[indene-2,4′-piperidin]-1-amine] are 4.33 nM and 31.1 nM.
In the same order, the values of `Nc1nc(N2CCC3(CC2)Cc2ccccc2[C@H]3N)cnc1Sc1ccnc(N2CC(F)(F)C2)c1Cl` [Example 102, (S)-1′-(6-amino-5-((3-chloro-2-(3,3-difluoroazetidin-1-yl)pyridin-4-yl)thio)pyrazin-2-yl)-1,3-dihydrospiro[indene-2,4′-piperidin]-1-amine] are 3.75 nM and 42.6 nM.
As for `Nc1nc(N2CCC3(CC2)CCC2(CC2)[C@H]3N)cnc1Sc1ccnc(N)c1Cl` [Example 151, (R)-8-(6-amino-5-((2-amino-3-chloropyridin-4-yl)thio)pyrazin-2-yl)-8-azadispiro[2.1.55.23]dodecan-4-amine], the IC50 turned out to be 7.71 nM in assay [1] and 137 nM in the assay on NCI-H358 cells.
Turning to `Nc1nc(N2CCC3(CC2)Cc2ccccc2[C@H]3N)cnc1Sc1ccnc(N2CCOCC2)c1Cl` [Example 101, (S)-1′-(6-amino-5-((3-chloro-2-morpholinopyridin-4-yl)thio)pyrazin-2-yl)-1,3-dihydrospiro[indene-2,4′-piperidin]-1-amine], the values for the IC50 (in assay [1]; with NCI-H358 cells) were 5.22 nM and 37.7 nM, respectively.
The corresponding values for `Nc1nc(N2CCC3(CC2)Cc2ccccc2[C@H]3N)cnc1Sc1ccnc(N2CCCC2)c1Cl` [Example 103, (S)-1′-(6-amino-5-((3-chloro-2-(pyrrolidin-1-yl)pyridin-4-yl)thio)pyrazin-2-yl)-1,3-dihydrospiro[indene-2,4′-piperidin]-1-amine] are 0.66 nM and 47 nM.
In the same order, the values of `Nc1nc(N2CCC3(CC2)Cc2ccccc2[C@H]3N)c(Br)nc1Sc1ccnc(N)c1Cl` [Example 95, (S)-1′-(6-amino-5-((2-amino-3-chloropyridin-4-yl)thio)-3-bromopyrazin-2-yl)-1,3-dihydrospiro[indene-2,4′-piperidin]-1-amine] are 6.27 nM and 6.39 nM.
Regarding `Nc1nc(N2CCC3(CC2)CC2CC2[C@H]3N)cnc1Sc1ccnc(N)c1C1CC1` (stereo partly drawn) [Example 94, (2R)-1′-(6-amino-5-((2-amino-3-cyclopropylpyridin-4-yl)thio)pyrazin-2-yl)spiro[bicyclo[3.1.0]hexane-3,4′-piperidin]-2-amine], the IC50 was 11.7 nM in assay [1] and 184 nM in the assay with NCI-H358 cells.
The corresponding values for `Nc1nc(N2CCC3(CC2)Cc2nc(Cl)sc2[C@H]3N)cnc1Sc1ccnc(C2CC2)c1Cl` [Example 99, (S)-1′-(6-amino-5-((3-chloro-2-cyclopropylpyridin-4-yl)thio)pyrazin-2-yl)-2-chloro-4,6-dihydrospiro[cyclopenta[d]thiazole-5,4′-piperidin]-6-amine] are 29.6 nM and 32.8 nM.
On to `CC1=CCC2(CCN(c3nc(N)c(Sc4ccnc(N)c4Cl)nc3F)CC2)[C@@H]1N` [Example 184, (S)-8-(6-amino-5-((2-amino-3-chloropyridin-4-yl)thio)-3-fluoropyrazin-2-yl)-2-methyl-8-azaspiro[4.5]dec-2-en-1-amine], for which the IC50 in assay [1] came to 4.25 nM; in the assay on NCI-H358 cells, 56.5 nM.
`Nc1nc(N2CCC3(CC2)Cc2ncsc2[C@H]3N)cnc1Sc1ccnc(C2CC2)c1Cl` [Example 98, (S)-1′-(6-amino-5-((3-chloro-2-cyclopropylpyridin-4-yl)thio)pyrazin-2-yl)-4,6-dihydrospiro[cyclopenta[d]thiazole-5,4′-piperidin]-6-amine]: the IC50 was 3.93 nM in assay [1] and 18.5 nM with NCI-H358 cells.
As for `Nc1nc(N2CCC3(CC2)Cc2ccccc2[C@H]3N)cnc1Sc1ccnc(N2CCC2)c1Cl` [Example 100, (S)-1′-(6-amino-5-((2-(azetidin-1-yl)-3-chloropyridin-4-yl)thio)pyrazin-2-yl)-1,3-dihydrospiro[indene-2,4′-piperidin]-1-amine], the IC50 in assay [1] was determined as 0.98 nM; with NCI-H358 cells, 24.5 nM.
The corresponding values for `N[C@@H]1c2ccccc2CC12CCN(c1cnc(Sc3ccnc(C4CC4)c3Cl)cn1)CC2` [Example 97, (S)-1′-(5-((3-chloro-2-cyclopropylpyridin-4-yl)thio)pyrazin-2-yl)-1,3-dihydrospiro[indene-2,4′-piperidin]-1-amine] are 13.2 nM and 41.9 nM.
The corresponding values for `Nc1nc(N2CCC3(CC=C(C4CC4)[C@H]3N)CC2)c(F)nc1Sc1ccnc(N)c1Cl` [Example 182, (S)-8-(6-amino-5-((2-amino-3-chloropyridin-4-yl)thio)-3-fluoropyrazin-2-yl)-2-cyclopropyl-8-azaspiro[4.5]dec-2-en-1-amine] are 3.78 nM and 78.5 nM.
The corresponding values for `Cc1nc(N2CCC3(CC2)Cc2ccccc2[C@H]3N)c(CO)nc1Sc1ccnc(N)n1` [Example 183, (S)-(3-(1-amino-1,3-dihydrospiro[indene-2,4′-piperidin]-1′-yl)-6-((2-aminopyrimidin-4-yl)thio)-5-methylpyrazin-2-yl)methanol] are 6.7 nM and 105 nM.
In the case of `Nc1nc(N2CCC3(CC2)Cc2ccccc2[C@H]3N)cnc1Sc1ccnc(N)c1C1CC1` [Example 91, (S)-1′-(6-amino-5-((2-amino-3-cyclopropylpyridin-4-yl)thio)pyrazin-2-yl)-1,3-dihydrospiro[indene-2,4′-piperidin]-1-amine], the IC50 came out at 17.8 nM in assay [1] and 37 nM in the assay on NCI-H358 cells.
Turning to `Cc1nc(N2CCC3(CC2)Cc2ccccc2[C@H]3N)c(CO)nc1Sc1ccnc(N)c1Cl` [Example 170, (S)-(3-(1-amino-1,3-dihydrospiro[indene-2,4′-piperidin]-1′-yl)-6-((2-amino-3-chloropyridin-4-yl)thio)-5-methylpyrazin-2-yl)methanol], the IC50 in assay [1] amounted to 6.81 nM; in the assay with NCI-H358 cells, 25.9 nM.
